In assay [1] the test system is 83P2H3/hCaT-expressing PC3 cell. In words: ERK phosphorylation in response to ion channel activators (anti-phospho-ERK Western blotting). The format is cell-based, human. Particulars: hCaT-expressing PC3 cells grown in 0.1% FBS, treated for 5 min. From the text: (§1) FIG. 22. Mediation of ERK phosphorylation by hCaT via a variety of ion channel activators. Control and 83P2H3/hCaT-expressing PC3 cell were compared for their ability to induce ERK phosphorylation in response to ion channel activators known to regulate intracellular calcium levels in several cell types. […] Whole cell lysates were separated by SDS-PAGE and analyzed by Western blotting using an anti-phospho-ERK monoclonal antibody (New England Nuclear, Bedford, Mass.). Anti-ERK overlays were used to evaluate protein loading.
(§2) Many mammalian proteins have been reported to interact with signaling molecules and to participate in regulating signaling pathways (J Neurochem. 2001; 76:217-223). Using immunoprecipitation and Western blotting techniques, proteins are identified that associate with 83P2H3 and mediate signaling events. Several pathways known to play a role in cancer biology can be regulated by several of these genes, including phospholipid pathways such as P13K, AKT, etc, adhesion and migration pathways, including FAK, Rho, Rac-1, etc, as well as mitogenic/survival cascades such as ERK, p38, etc (Cell Growth Differ. 2000,11:279; J Biol Chem. 1999, 274:801; Oncogene 2000, 19:3003, J. Cell Biol. 1997, 138:913.). Using Western blotting techniques, the ability of 83P2H3 to regulate these pathways is examined. Cells expressing 83P2H3 and cells lacking these genes are either left untreated or stimulated with ions, channel activators, or antibodies. Cell lysates are analyzed using anti-phospho-specific antibodies (Cell Signaling, Santa Cruz Biotechnology) in order to detect phosphorylation and regulation of ERK, p38, AKT, P13K, PLC and other signaling molecules.

A further assay relates to PC3-neo cells. The description is as above. The format is cell-based, human. As to conditions: PC3-neo cells grown in 0.1% FBS, treated for 5 min.
From the text: as §1, §2

A further assay concerns HLA-DR. Particulars: cited from earlier work.
The next assay relates to T helper lymphocytes. As to conditions: regardless of HLA type; cited from earlier work.

Regarding `CCCCCCCCCCCCCC(=O)O[C@@H]1[C@@H](C)[C@@]2(O)[C@@H](C=C(CO)C[C@]3(O)C(=O)C(C)=C[C@@H]23)[C@@H]2C(C)(C)[C@]12OC(C)=O` [PMA], the ERK phosphorylation result (in assay [1]; in the assay with PC3-neo cells) was “induced ERK phosphorylation” throughout.

`C[C@H](CCC(=O)O)C[C@H](C)C[C@H](C)C(=O)/C=C(\O)[C@H](C)C[C@H](C)C/C=C/[C@@H](C)[C@@H](O)[C@@H](C)[C@@H](O)C[C@@H]1CC[C@@](C)([C@H]2CC[C@@](C)([C@@H](C)O)O2)O1` [ionomycin]: the ERK phosphorylation result in assay [1] is reported as “induced ERK phosphorylation”.

LPA: in assay [1], the ERK phosphorylation result is “induced ERK phosphorylation”.

Take aKXVAAWTLKAAa: the “Binding to HLA-DR alleles” value with HLA-DR is given as “bind to most HLA-DR alleles”. In addition, the “Stimulation of the response of T helper lymphocytes” value in the assay with T helper lymphocytes was “stimulate the response of T helper lymphocytes from most individuals”.

(Values after patent US20030134784A1, “Nucleic acids and corresponding proteins entitled 83P2H3 and CaTrF2E11 useful in treatment and detection of cancer” (priority 2000, published 2003).)
